{"source": "paper PMC9916762", "about": "“Impact of Hydrophobic Chains in Five-Coordinate Glucoconjugate Pt(II) Anticancer Agents” (International Journal of Molecular Sciences, 2023)", "key": {"[1]": {"assay": "Octanol/water partition coefficient, shake-flask method", "type": "physicochemical", "conditions": "n-octanol/water, UV-vis", "experimental": "The partition coefficients in octanol/water (log Po/w) were measured using the shake-flask method, by calculating the equilibrium concentrations through UV spectra (Table 1).\nPartition coefficients for the platinum complexes were determined in triplicate in an n-octanol/water system, with different ratios (1:1, 1:2, 2:1). Each complex was dissolved in n-octanol at the concentrations 16.7, 12.5, or 10 μM and subsequently, an appropriate volume of water was added. The mixtures were shaken mechanically for 1 h to ensure the distribution between the two solvent phases. The samples were then centrifuged (13,000 rpm, 10 min). Afterwards, the platinum concentration was determined in the octanol phases by UV–vis spectrophotometry, after collecting a calibration line for each complex. Results are expressed as the logarithm of the partition coefficient of octanol/water (log Po/w), which is the logarithm of the concentration of platinum in the n-octanol divided by its concentration in the aqueous layer."}, "[2]": {"system": "immortalized human keratinocytes (HaCaT)", "assay": "MTT cell viability assay, HaCaT", "type": "cell-based", "conditions": "48 h incubation", "excerpt": "(§1) The immortalized human keratinocytes (HaCaT) were from Innoprot."}, "SVT2 cells": {"system": "SVT2 cells", "assay": "Western blot of pro-caspases 9 and 3, SVT2", "type": "cell-based, murine", "conditions": "SVT2, 9.8 μM, 48 h", "experimental": "In particular, SVT2 and A431 were incubated for 48 h with 1-Me,Me and 1-Oct,Me, using the IC50 value concentrations. At the end of incubation, uptake and cell death mechanisms were evaluated. […] Finally, apoptosis was investigated by Western blot analyses using specific antibodies against pro-caspases 9 and 3.\nThe SVT2 were seeded on six-well plates at a density of 2.5 × 10^5 cells/well, whereas A431 was seeded at a density of 3 × 10^5 cells/well. After 24 h, cells were treated with 9.8 μM of 1-Me,Me or 2.3 μM 1-Oct,Me. After 48 h of incubation, Western blot analyses were performed by using pro-caspase 9 (Cell Signaling Technology, Danvers, MA, USA) and pro-caspase 3 (Abcam, Cambridge, MA, USA) antibodies, as reported by Del Giudice et al. Protein intensity levels were normalized using β-actin (Sigma-Aldrich, St. Louis, MO, USA). The chemiluminescence detection system was purchased from Bio-Rad (Hercules, CA, USA)."}, "[3]": {"assay": "In-solution stability in DMSO (1H NMR, UV-vis)", "type": "physicochemical", "conditions": "50 μM in DMSO, 25 °C, up to 7 days", "experimental": "The stability of the complexes in DMSO-d6, the solvent used to prepare stock solutions for biological experiments, was evaluated by recording their UV–vis absorptions and ^1H-NMR spectra over time.\nUV–vis absorption spectra of 1-Me,Me were recorded in DMSO for 5 h and then after 24 h and 7 days (Figure 5). […] In fact, the λmax experienced a blue shift from 278 to 269 nm, giving rise to an isosbestic point at 275 nm. In addition, a decrease in the absorbance of the shoulder at 300 nm is observed, together with an absorbance increase in the shoulder at 260 nm. […] It is highly probable that a slow release of ethene and dmphen can occur. This would lead to the formation of the square planar species of type 4-R,R’, as reported in Scheme 3.\nIn all cases, no cleavage of the Pt–carbene bond was detected. Figure 6 reports the ^1H NMR spectra of 1-Me,Oct after dissolution, 1.5, 5, and 24 h.\nThe stability of the 1-R,R’ complexes in DMSO was studied by dissolving 5 mg of each complex in 250 μL of DMSO-d6 and then diluting 200 μL of this solution with 300 μL of DMSO-d6. The stability of the 1-R,R’ complexes in aqueous solvents was studied by dissolving 5 mg of each complex in 250 μL of DMSO-d6 and then diluting 50 μL of this solution with 500 μL of D2O. The ^1H-NMR spectra of the resulting solutions were recorded over time. […]"}, "Calf thymus DNA": {"system": "Calf thymus DNA", "assay": "Ethidium bromide displacement DNA binding assay", "conditions": "0.05 M ammonium acetate pH 7.5, titration with complex", "excerpt": "The interaction of Pt-based drugs with biological macromolecules deeply affects their biological activity. DNA represents a target for this kind of metallodrug, while proteins are considered both as carriers and targets. To obtain information on the reactivity of the synthesised Pt compounds with DNA, fluorescence intercalation displacement assays have been performed using ethidium bromide (EB) as the DNA intercalator. When bound to DNA, EB has an emission fluorescence of significant intensity. On the other hand, when it is displaced by a competitive DNA-binding molecule, it undergoes quenching by water molecules. Thus, if a molecule binds DNA by displacing EB, a significant reduction in the fluorescence intensity of the EB-DNA complex will be observed.\nThe ethidium bromide (EB) displacement assay was performed on a HORIBA FluoroMax-4 spectrofluorometer equipped with a thermostat bath. Calf thymus DNA was incubated with EB in 0.05 M of ammonium acetate at pH 7.5, at a DNA:EB molar ratio of 1:5 for 30 min in the dark at room temperature. Then, the fluorescence quenching of this complex was evaluated by adding to it increasing amounts of Pt compounds dissolved in DMSO (20 mM). Samples were equilibrated for 5 min before collecting each spectrum. […]"}, "[4]": {"system": "human epidermoid carcinoma cells (A431)", "assay": "MTT cell viability assay, A431", "type": "cell-based", "excerpt": "as §1"}}, "data": [{"substance": "Platinum(1+), (2,9-dimethyl-1,10-phenanthroline- N1,N10)(η2-ethene)methyl[1,3-dihydro-1,3-dimethyl-4-[1-[2,3,4,6-tetrakis-O-(acetyl)-β-D-glucopyranosyl]-1H-1,2,3-triazol-4-yl]-2H-imidazol-2-ylidene], 1,1,1-trifluoromethanesulfonate [1-Me,Me]", "values": [{"measurement": "Log Po/w", "setting": "[1]", "value": 0.42}, {"measurement": "IC50", "setting": "[2]", "value": "8.4 ± 1.7", "unit": "µM"}, {"measurement": "pro-caspases 9 and 3 levels", "setting": "SVT2 cells", "value": "significant decrease in pro-caspases 9 and 3 levels"}, {"measurement": "stability, UV-vis spectra over time", "setting": "[3]", "value": "poor stability"}, {"measurement": "fluorescence intensity of EB-DNA complex", "setting": "Calf thymus DNA", "value": "significant reduction in fluorescence intensity"}, {"measurement": "IC50", "setting": "[4]; 48 h incubation, MTT", "value": "20 ± 2", "unit": "µM"}, {"measurement": "SI (selectivity index)", "setting": "[4]; ratio IC50 HaCaT / IC50 A431", "value": 0.42}]}]}
